Experimental data published in patent publication US5661182A, “Method for lowering oxygen affinity of hemoglobin in redcell suspensions, in whole blood and in vivo” (Virginia Commonwealth University, priority 1995, dated 1997).
“Also recorded” adds a separate entry of the source.

Key:
[1] = target: intracellular hemoglobin, human red cells (Homo sapiens, UniProt P68871+P69905); experiment: Kinetics of interaction between effectors and intracellular hemoglobin (absorbance at 560 nm) in human red cell suspensions; format: cell-based; details: for ΔA560: effector 0.5 mM, room air
Protocol: (§1) Equilibrium oxygen binding curves were also recorded for red cell suspensions (10% hematocrit) that had been reacted for 30 min in the dark at 37° C. with 20 μM DIDS, a specific inhibitor of the red cell membrane anion channel. Kinetic Experiments. The kinetics of the interaction between the effectors and intracellular hemoglobin were measured in the absence and presence of varying concentrations of HSA. The red cell suspensions were equilibrated under room air (pO2 =140 mmHg) at 37° C. in the optical cuvette of the Hemox analyzer, which provides a constant stirring of the suspensions. […] Changes in absorbance were recorded and stored on tape for further analyses.
An increase in absorbance at 560 nm (εmax for deoxy-Hb in the visible spectrum) under room air indicates the formation of partially deoxygenated Hb in the red cells and a decreased oxygen affinity of Hb, provided that the pH is held constant.
Examples of these kinetic recordings are illustrated in FIG. 4. Two indices were calculated from the experimental values: ΔA560 is the difference in optical density from the base line to the plateau and t1/2 is […]. […]

[2] = target: hemoglobin in fresh bovine red blood cells (Bos taurus, UniProt P01966+P02070); experiment: Oxygen binding of fresh bovine red blood cells (p50); format: cell-based; details: for RBC (p50): bovine RBC, effector 0.5 mM, pH 7.4, 37 °C
Protocol: (§2) Human blood was collected on heparin from healthy nonsmoking donors. Bovine blood was provided by Pr Delpech, INA (Paris-Grignon). Red blood cells were washed three times in isotonic buffer, kept at 4° C., and used within 24 h after sampling. Hemoglobin Yakima, a high-oxygen-affinity variant [α2 β2 99 (G1) Asp>>His], was obtained from a known heterozygous carrier. Fresh Yakima red cells were processed in the same way as described above.
(§3) L3,5 and L3,4,5 were provided by Dr. Lalezari (Montefiore Hospital, New York); RSR-4 [2-[4-[[(3,5-dichloroanilino)carbonyl]methyl]phenoxy]-2-methylpropionic acid]and RSR13 [2-4-[[(3,5- dimethylanilino)carbonyl]methyl]phenoxy]-2-methylpropionic acid] have been synthesized following the procedure described in Randad et al. (J. Med. Chem. 34,752 (1991)). Human serum albumin (HSA), bovine serum albumin (BSA) and 4,4'diisothiocyanatostilbene-2,2'-disulfonate (DIDS) were purchased from Sigma (St. Louis, Mo.). Due to their low solubility in aqueous buffer, 10 mM stock solutions of the compounds were prepared in a slight exccess of sodium bicarbonate and back-titrated to pH 7.4. For example, RSR-4 or RSR-13 was dissolved at 60° C. in a 140 mM NaCl and 50 mM bis-Tris buffer at room temperature upon progressive addition of NaHCO3 to obtain 10 mM stock solutions. The pH was carefully adjusted to 7.4 after complete solubilization and before use of the solutions. Fresh solutions were prepared each week. Stock solutions of DIDS (1 mM) were prepared, in the dark, on the day of the experiments in a pH 7.4 buffer. Human serum albumin (defatted HSA) and bovine serum albumin (BSA) were prepared freshly as 1 mM stock solutions, pH 7.4. Equilibrium Measurements. The allosteric modulation of the effectors on freshly prepared solutions of hemoglobin or red cell suspensions was measured by the change in p50, the partial pressure of oxygen for half-saturation. Oxygen equilibrium curves (OEC) were carried out with the Hemox analyzer (TCS, Southampton, Pa.) under the following conditions: pH 7.4, 140 mM NaCl and 50 mM bis-Tris buffer at 37° C. In all experiments, the concentration of hemoglobin in the red cell suspensions was 20-25 μM hemoglobin tetramer (Hb4) as measured by Drabkin's method (cyanomethemoglobin) at the end of each recording. The final concentration of the allosteric effector in the cuvette was 0.5 mM, resulting in an effector/Hb4 ratio of 20 in the absence of albumin. OEC were also made in the same buffer containing 12.5, 25, 50, and 100 μM HSA (for human red cell suspensions) or BSA (for bovine cell suspensions). The serum albumin experiments were carried out with traces of an antifoaming agent. This agent has no deleterious effect on the red cell suspensions. The molar ratio of albumin to tetrameric hemoglobin was varied from 0.5 (at 12.5 μM HSA) to 4 (at 100 μM HSA); in whole blood this ratio is approximately 0.3 (0.7 mM albumin plus plasma proteins/2.25 mM Hb4). Therefore, the concentration of albumin used in the present studies was always larger relative to tetrameric hemoglobin than that found in whole blood.
Bovine Red Cell Studies. Table 2 presents data for oxygen binding measurements for fresh bovine red blood cells and isolated Hb solutions on addition of the effectors L3,5, RSR-4, and RSR-13. The experimental conditions used were the same as described in conjunction with Table 1 for human red blood cells. The oxygen equilibrium curves for Hb solutions were made at pH 7.2, 100 mM NaCl and 50 mM bis-Tris buffer at 25° C. Catalase (20 μg/mL) and 50 μM EDTA were added to oppose oxidation of the hemes. The concentration of the effectors was 0.5 mM in all conditions. In Table 2, BSA is bovine serum albumin and P50 (mmHg) is the pO2 for 50% saturation.

[3] = target: hemoglobin in fresh human red blood cells (Homo sapiens, UniProt P68871+P69905); experiment: Oxygen equilibrium curves of fresh human red cell suspensions (p50); format: cell-based; details: for potency in raising p50 / lowering the oxygen affinity: fresh human red cells, absence of albumin; for P50: effector 0.5 mM, pH 7.4, 37 °C; for inhibition of the allosteric effect by albumin: human red cells, 50 or 100 μM HSA
Protocol: as §2, §3
as §1, with “analyses. […]” for “analyses.”

hemoglobin = experiment: Comparison of allosteric effector strength (right shift of oxygen equilibrium curve); format: biochemical; details: compounds of FIG. 1
[4] = time for half-ΔA560, effector 0.5 mM, 12.5 μM HSA, 37 °C
[5] = time for half-ΔA560, effector 0.5 mM, 50 μM HSA, 37 °C
[6] = time for half-ΔA560, effector 0.5 mM, 100 μM HSA, 37 °C
[7] = time for half-ΔA560, effector 0.5 mM, no HSA, 37 °C
[8] = human RBC pre-incubated 30 min with DIDS, no HSA
[9] = human RBC suspension, 50 μM HSA
[10] = human RBC suspension, 100 μM HSA

intracellular hemoglobin, human red cells, sequence (P69905 whole entry): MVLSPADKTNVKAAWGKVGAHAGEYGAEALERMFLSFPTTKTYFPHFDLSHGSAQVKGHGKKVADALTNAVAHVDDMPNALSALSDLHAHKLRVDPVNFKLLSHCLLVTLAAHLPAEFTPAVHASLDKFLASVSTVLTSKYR
intracellular hemoglobin, human red cells, sequence (P68871 whole entry): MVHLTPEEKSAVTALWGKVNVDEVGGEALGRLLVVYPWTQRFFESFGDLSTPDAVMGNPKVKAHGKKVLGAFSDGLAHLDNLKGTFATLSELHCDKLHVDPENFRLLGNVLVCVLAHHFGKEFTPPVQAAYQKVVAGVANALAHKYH
hemoglobin in fresh human red blood cells, sequence (P69905 whole entry): as the sequence (P69905 whole entry) above
hemoglobin in fresh human red blood cells, sequence (P68871 whole entry): as the sequence (P68871 whole entry) above
hemoglobin in fresh bovine red blood cells, sequence (P01966 whole entry): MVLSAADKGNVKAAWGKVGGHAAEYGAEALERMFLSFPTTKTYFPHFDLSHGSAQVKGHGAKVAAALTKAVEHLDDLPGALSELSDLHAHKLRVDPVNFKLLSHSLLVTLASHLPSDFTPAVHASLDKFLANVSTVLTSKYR
hemoglobin in fresh bovine red blood cells, sequence (P02070 whole entry): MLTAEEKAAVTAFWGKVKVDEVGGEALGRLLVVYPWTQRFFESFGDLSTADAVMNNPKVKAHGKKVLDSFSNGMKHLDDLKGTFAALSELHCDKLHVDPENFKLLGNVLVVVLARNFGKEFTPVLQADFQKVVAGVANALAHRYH

In the case of CC(C)(Oc1ccc(NC(=O)Nc2cc(Cl)cc(Cl)c2)cc1)C(=O)O [L3,5, reference compound], the ΔA560 ([1]; 12.5 μM HSA, 37 °C) is reported as 0.124, the ΔA560 ([1]; 50 μM HSA, 37 °C) is reported as 0.058 and the ΔA560 ([1]; 100 μM HSA, 37 °C) is reported as 0.029. The ΔA560 ([1]; no HSA, 37 °C) was 0.181, the t1/2 [1, 4] was 1.54 min and the t1/2 [1, 5] was 1.83 min. For the same compound, the t1/2 [1, 6] was 1.92 min, the t1/2 [1, 7] was 0.55 min and the “RBC (p50)” value ([2]; no BSA) was 35 mmHg. For the same compound, the “order of potency in lowering the oxygen affinity” value ([2]; bovine red cells) was “RSR-4>>L3,5>RSR-13”, the p50 shift relative to control at 500 µM ([2]; bovine red cells, 0.5 mM) was 30% and the “potency in raising p50 / lowering the oxygen affinity” value [3] was “comparable; also recorded: almost equally potent effectors; also recorded: L3,5≈RSR-4>RSR-13”. It also gave a P50 [3, 8] of 54 mm Hg, a P50 [3, 9] of 32 mm Hg and a P50 [3, 10] of 28 mm Hg. The P50 ([3]; human RBC suspension, no HSA) was 60 mm Hg and the “allosteric effector strength” value (hemoglobin) was “L3,5≈RSR-4>RSR-13; also recorded: much stronger allosteric effect”.
In the case of Cc1cc(C)cc(NC(=O)Cc2ccc(OC(C)(C)C(=O)O)cc2)c1 [RSR-13], the “change in t1/2 upon addition of albumin” value ([1]; HSA added) is reported as “No change”, the ΔA560 ([1]; 50 μM HSA, 37 °C) is reported as 0.082 and the ΔA560 ([1]; 100 μM HSA, 37 °C) is reported as 0.067. For the same compound, the ΔA560 ([1]; no HSA, 37 °C) was 0.085, the t1/2 ([1]; in the absence of albumin) was “over 2 min” and the t1/2 [1, 5] was 2.3 min. The t1/2 [1, 6] was 2.08 min, the t1/2 [1, 7] was 2.32 min and the “RBC (p50)” value ([2]; no BSA) was 31 mmHg. For the same compound, the “order of potency in lowering the oxygen affinity” value ([2]; bovine red cells) was “RSR-4>>L3,5>RSR-13”, the p50 shift relative to control at 500 µM ([2]; bovine red cells, 0.5 mM) was 15% and the “potency in raising p50 / lowering the oxygen affinity” value [3] was “weakest in reducing the oxygen affinity of Hb, relative to L3,5 or RSR-4; also recorded: L3,5≈RSR-4>RSR-13”. For the same compound, the P50 [3, 9] was 34.0 mm Hg, the P50 [3, 10] was 32.6 mm Hg and the P50 ([3]; human RBC suspension, no HSA) was 37.8 mm Hg. The “inhibition of the allosteric effect by albumin” value [3] was “much less affected by serum albumin, and its effect persists even in the presence of 100 1-M HSA” and the “allosteric effector strength” value (hemoglobin) was “L3,5≈RSR-4>RSR-13”.
For CC(C)(Oc1ccc(CC(=O)Nc2cc(Cl)cc(Cl)c2)cc1)C(=O)O [RSR-4, 2-[4-[[(3,5-dichloroanilino)carbonyl]methyl]phenoxy]-2-methylpropionic acid], the ΔA560 ([1]; 12.5 μM HSA, 37 °C) was 0.107, the ΔA560 ([1]; 50 μM HSA, 37 °C) was 0.086 and the ΔA560 ([1]; 100 μM HSA, 37 °C) was 0.042. For the same compound, the ΔA560 ([1]; no HSA, 37 °C) was 0.152, the t1/2 ([1]; in the absence of albumin) was 1 min and the t1/2 [1, 4] was 1.53 min. The t1/2 [1, 5] was 1.27 min, the t1/2 [1, 6] was 1.45 min and the t1/2 [1, 7] was 1 min. For the same compound, the “RBC (p50)” value ([2]; 50 μM BSA) was 45 mmHg, the “RBC (p50)” value ([2]; no BSA) was 54 mmHg and the “order of potency in lowering the oxygen affinity” value ([2]; bovine red cells) was “RSR-4>>L3,5>RSR-13”. The “effect on control p50” value ([2]; bovine red cells, 0.5 mM, without and with 50 μM BSA) was “doubling of the control p50 and persists even in the presence of 50 μM BSA”, the “potency in raising p50 / lowering the oxygen affinity” value [3] was “comparable; also recorded: almost equally potent effectors; also recorded: L3,5≈RSR-4>RSR-13” and the P50 [3, 8] was 49 mm Hg. For the same compound, the P50 ([3]; human RBC suspension, 12.5 μM HSA) was 48.5 mm Hg, the P50 [3, 9] was 44.0 mm Hg and the P50 [3, 10] was 36 mm Hg. For the same compound, the P50 ([3]; human RBC suspension, no HSA) was 52.5 mm Hg, the “inhibition of the allosteric effect by albumin” value [3] was “less inhibited by albumin than the closely related compound L3,5; also recorded: much lower inhibition of RSR-4 by serum albumin than that observed with L3,5; also recorded: much less inhibited by 50 or 100 μM albumin than observed with L3,5” and the “allosteric effector strength” value (hemoglobin) was “L3,5≈RSR-4>RSR-13”.
